Here are results for four molecules from patent US11229629B2, “Inhibitors of mitochondrial fission” (Queen's University at Kingston, priority 2019, dated 2022).

For one data set, the system named is A549 cells. The data set is described as follows: Mitochondrial morphology analysis (MFC, machine learning) in A549 cells. Conditions: for Concentration (dose) at which mitochondrial fission was inhibited: in vitro screening.
The subject of data set [1] is SK-MES-1. Briefly: Mitochondrial fragmentation count in SK-MES-1 cells. Conditions: 0.1-0.5 μM of Drpitor1a. The data set is classed as cell-based.
Data set [2] deals with SK-LU-1. The data set is described as follows: Mitochondrial fragmentation count in SK-LU-1 cells. In kind it is cell-based. The following applies: 0.1-0.5 μM of Drpitor1a.
For data set [3], the system named is MCF7. The data set is described as follows: Mitochondrial fragmentation count in MCF7 cells. The data set is classed as cell-based. The following applies: 0.1-0.5 μM of Drpitor1a.
The subject of data set [4] is SW 900. The data set is described as follows: Mitochondrial fragmentation count in SW 900 cells. The data set is classed as cell-based. Conditions: 0.1-0.5 μM of Drpitor1a.
In data set [5] the test system is Drp1 knocked-down A549 cells. The data set is described as follows: MFC in Drp1 knocked-down A549 cells with FCCP-induced fission. In kind it is cell-based, human. Conditions: FIG. 5B.
Description: Higher MFC indicates more fragmented mitochondrial network.
Carbonyl cyanide-4-(trifluoromethoxy) phenylhydrazone (FCCP) was added, a mitochondrial oxidative phosphorylation uncoupler, to cells treated with siDrp1.
The next data set has as its system mitochondrial complex I. The data set is described as follows: Mitochondrial complex I activity in A549 cells. In kind it is cell-based, human. Conditions: mdivi-1 50 μM, Drpitor1a 0.5 μM; FIG. 5C.
The subject of data set [6] is A549. The data set is described as follows: Cell proliferation assay (EdU) in A549 cells. In kind it is cell-based, human. Conditions: for Cell proliferation: A549, 0.5 μM of Drpitor1a, 48 hours; for Percentage of EdU incorporated cells: mdivi-1 50 μM, Drpitor1 0.75 μM, Drpitor1a 0.5 μM, FIG. 6A. Here is the method: (§1) Cell proliferation assay: Cell proliferation was measured 48 hours post compound treatment using Click-iT® EdU Alexa Fluor® 488 Imaging Kit (available from Thermo Fisher Scientific) according to manufacturer's protocol. 1.0×10^5 cells were seeded per well in 6-well plates and compounds were added 24 hours after seeding. EdU was allowed to incorporate 10 hours before flow cytometry. Percentage of cells incorporated with EdU in each group was determined using SONY SH800S flow cytometer and compared between control group and treatment groups.

Data set [7] deals with SK-MES-1. Briefly: Cell proliferation assay (EdU) in SK-MES-1 cells. The data set is classed as cell-based. The following applies: 0.5 μM of Drpitor1a. Here is the method: as §1
Data set [8] relates to SK-LU-1. Briefly: Cell proliferation assay (EdU) in SK-LU-1 cells. In kind it is cell-based. The following applies: 0.5 μM of Drpitor1a. The procedure:
as §1

The subject of data set [9] is SW 900. Briefly: Cell proliferation assay (EdU) in SW 900 cells. The data set is classed as cell-based. Conditions: 0.5 μM of Drpitor1a. The procedure: as §1
For data set [10], the system named is MCF7. Briefly: Cell proliferation assay (EdU) in MCF7 cells. Conditions: 0.5 μM of Drpitor1a. The data set is classed as cell-based. The procedure:
as §1

The next data set concerns PAH PASMC cell lines. The data set is described as follows: Cell proliferation of PAH PASMC cell lines. The data set is classed as cell-based, human. The arrangement: unit: % EdU-positive cells. The following applies: 1.0 μM of Drpitor1a. The procedure:
as §1

For data set [11], the system named is Daoy cells (Medulloblastoma cells). Briefly: Cell proliferation of Daoy cells. The following applies: 0.15~2.5 μM of Drpitor1a, Ctrl = 1. The data set is classed as cell-based. Here is the method: as §1
Data set [12] relates to U373 (Glioblastoma cells). Briefly: Cell proliferation of U373 cells. In kind it is cell-based. The following applies: 0.15~2.5 μM of Drpitor1a, Ctrl = 87.2. Here is the method:
as §1

Another data set deals with U87 (Glioblastoma cells). The data set is described as follows: Cell proliferation of U87 cells. The data set is classed as cell-based. Conditions: 0.15~2.5 μM of Drpitor1a, Ctrl = 1. The procedure:
as §1

The subject of data set [13] is A549. Briefly: Colony formation assay in A549 cells. In kind it is cell-based, human. The following applies: 0.5 μM of Drpitor1a. The procedure:
(§2) Colony formation assay: Cells were seeded in 6-well plates and optimal concentrations of compounds were added 24 hours after seeding. After 48 hours of compound treatment, cells were disassociated with 0.25% trypsin-EDTA (25200114, Gibco, Burlington, ON, Canada) and reseeded in a 48-well plate at a density of 200 live cells/mL. After 7-10 days of culture, cells were fixed with 4% paraformaldehyde and then stained with 1% crystal violet (V5265, Millipore Sigma, Etobicoke, ON, Canada). Images of cell colonies were taken by a Panasonic LX3 digital camera (Kadoma, Osaka, Japan).

For data set [14], the system named is SK-MES-1. Briefly: Colony formation assay in SK-MES-1 cells. In kind it is cell-based. The following applies: 0.5 μM of Drpitor1a. Here is the method: as §2
Data set [15] deals with SK-LU-1. The data set is described as follows: Colony formation assay in SK-LU-1 cells. In kind it is cell-based. The following applies: 0.5 μM of Drpitor1a. Here is the method:
as §2

For data set [16], the system named is MCF7. The data set is described as follows: Colony formation assay in MCF7 cells. Conditions: 0.5 μM of Drpitor1a. The data set is classed as cell-based. The procedure:
as §2

In data set [17] the test system is A549. Briefly: Apoptosis assay (Annexin V/PI) in A549 cells. In kind it is cell-based, human. The following applies: 1.0 μM of Drpitor1, 0.25-0.5 μM of Drpitor1a, 48 hours. Here is the method: Apoptosis assay: Cell apoptosis was determined by the Annexin V+ propidium iodide (PI) method using Alexa Fluor 488 Annexin V/Dead Cell Apoptosis Kit (available from ThermoFisher Scientific). A549 cells were collected 48 hours after compound treatment. Percentage of Annexin V (+) and PI (+) cells was determined using SONY S[…] flow cytometer and compared between control group and treatment groups.

Data set [18] relates to SK-MES-1. The data set is described as follows: Apoptosis assay (Annexin V/PI) in SK-MES-1 cells. The data set is classed as cell-based. Conditions: 0.25-0.5 μM of Drpitor1a.
Description: (§4) Apoptosis assay: Cell apoptosis was determined by the Annexin V+ propidium iodide (PI) method using Alexa Fluor 488 Annexin V/Dead Cell Apoptosis Kit (available from ThermoFisher Scientific). A549 cells were collected 48 hours after compound treatment. Percentage of Annexin V (+) and PI (+) cells was determined using SONY S[MUT] flow cytometer and compared between control group and treatment groups.
Data set [19] has as its system SK-LU-1. The data set is described as follows: Apoptosis assay (Annexin V/PI) in SK-LU-1 cells. In kind it is cell-based. Conditions: 0.25-0.5 μM of Drpitor1a.
Description: as §4
The subject of data set [20] is SW 900. Briefly: Apoptosis assay (Annexin V/PI) in SW 900 cells. The data set is classed as cell-based. Conditions: 0.25-0.5 μM of Drpitor1a.
Description: as §4
Data set [21] relates to A549 cells xenotransplant tumor. The data set is described as follows: In vivo xenotransplant tumor model of human lung cancer. Set-up: species or system mouse. The following applies: 10 mg/kg intraperitoneally and intratumorally; end of study. The source says: (§3) In vivo xenotransplant tumor model: BALB/c Rag2^−/−; IL2Rgc^−/− double knock out mice were kindly provided by Dr. M Ito, Central Institute for Experimental Animals, Kawasaki, Japan and were bred in the Animal Facility at Queen's University. Animal protocols were approved by the University Animal Care Committee of Queen's University. A xenotransplant mouse model of human lung cancer was established by subcutaneous injection of A549 cells ([…] per tumor) at the back flank regions. […] Equal volumes of solvents were injected as control. […] Tumor length and width was measured every 2 days. Animals were euthanized with cervical dislocation under 5% isoflurane inhalation followed by tumor collection. Blood samples were collected for liver and kidney toxicity studies just before euthanasia.

A short description of data set [22]: Liver and kidney toxicity (blood samples), body weight in xenotransplant mice.
Description: as §3

The test system of data set [23] is mutant mouse Drp1 K38A in siDrp1-treated A549 cells. The data set is described as follows: MFC in A549 cells transfected with siDrp1+mDrp1 K38A. The following applies: FIG. 5A.
Data set [24] relates to right ventricle ischemia-reperfusion injury. Conditions: 0.5 μM in perfusate; ex vivo rat heart.
Description: Briefly, Sprague-Dawley rats were anesthetized with an intraperitoneal injection of ketamine (75 mg/kg)/xylazine (10 mg/kg). The hearts were harvested and perfused with oxygenated Krebs' solution at 37° C. at a constant pressure of 85 cmH2O on a Langendorff apparatus. RV pressure was measured by a fluid-filled balloon placed in the RV connected to a pressure transducer (Harvard Apparatus; Holliston, Mass., USA). High fidelity signals were recorded using PowerLab 8/35 data acquisition hardware and analyzed using LabChart Pro 8 software (AD Instruments; Colorado Springs, Colo., USA).
IR protocol: Hearts were stabilized for 10 minutes before the IR experiment. Two consecutive cycles of 20 minutes of global ischemia followed by 20 minutes of reperfusion were performed. […] Same volume of DMSO was used as a negative control for test compound. […]
Mitochondrial superoxide imaging and quantification: RV tissues collected from Langendorff RV-IR experiments were cut into pieces of 1×1×1 mm^3 and were incubated with 5 μM of MitoSOX™ Red mitochondrial superoxide indicator (available from Molecular Probes™) at 37° C. for 15 minutes. […] Intensity of the MitoSOX™ Red mitochondrial superoxide indicator was analyzed by the Leica LAS X software.
Test compound was added to the perfusate prior to IR. […] After IR, RV myocardium was collected and mitochondrial superoxide was measured.
The mark [25] stands for this setting: 10 mg/kg of Drpitor1a, blood before euthanasia.

As to `N#Cc1cc2c3ccccc3[nH]c2c2ccccc12` [Compound 13], the “Concentration (dose) at which mitochondrial fission was inhibited” value in the data set with A549 cells (A549 cells) is 20 µM. In addition, in the data set on A549 cells (A549 cells, 17 compounds screened, FIG. 1), the “Inhibition of mitochondrial fission (reduction in MFC) in in vitro screening” value is given as “most significant inhibition of mitochondrial fission”.

Consider `O=C1c2ccncc2C(=O)c2c1[nH]c1ccccc21` [Drpitor1a], for which the MFC turned out to be 0.2291 ± 0.02596 with SK-MES-1 [1], 0.3367 ± 0.03623 in the data set with SK-LU-1 [2], 0.5479 ± 0.05737 in the data set on MCF7 [3] and 0.3345 ± 0.0309 against SW 900 [4]. For the same molecule, the “MFC on adding compound to siDrp1+FCCP treatment” value in data set [5] (A549, Drpitor1a 0.25 μM) is “reduction of MFC was not seen”. Also, the “Mitochondrial complex I activity in A549 cells” value in the data set with mitochondrial complex I was “no significant change”. Also, in the data set with A549 [6], the “Dose dependence of effect on cell proliferation” value is on record as “dose-dependent”. Moreover, the Cell proliferation worked out at 46 ± 0.8505 with A549 [6]; 5.523 ± 0.3613 in the data set with SK-MES-1 [7]; 5.04 ± 0.5525 in the data set on SK-LU-1 [8]; 28.37 ± 0.3712 in the data set on SW 900 [9]; 3.437 ± 0.2325 in the data set with MCF7 [10]; 3.367 ± 0.3335 with PAH PASMC cell lines (PAH PASMC cell line P1). The Cell proliferation is reported as 0.7167 ± 0.05608 in the data set with PAH PASMC cell lines (PAH PASMC cell line P3); 9.68 ± 0.563 in the data set with PAH PASMC cell lines (PAH PASMC cell line P7); 0.7078 ± 0.005519 in data set [11]; 45.33 ± 0.2728 in data set [12]; 0.1084 ± 0.001408 in the data set with U87 (Glioblastoma cells). The “Percentage of EdU incorporated cells” value in the data set with A549 [6] is on record as “significantly reduced”. The Colony number is listed as 1.5 ± 0.2236 in the data set with A549 [13], 0 ± 0 in the data set on SK-MES-1 [14], 0.6667 ± 0.3333 in the data set with SK-LU-1 [15] and 0 ± 0 in the data set on MCF7 [16]. The Apoptosis is listed as 25.06 ± 0.4675 with A549 [17], 2.464 ± 0.131 in the data set with SK-MES-1 [18], 3.6 ± 0.2292 in the data set on SK-LU-1 [19] and 5.686 ± 0.1402 in the data set on SW 900 [20]. Besides, the “Reduction in tumor volume” value in [21] is 43.8%. Moreover, the “Reduction in tumor weight” value in [21] was determined as 43.9%. Besides, the Albumin in data set [22] (setting [25]) came out at 26.75 ± 0.9465 g/L. In addition, the BUN in data set [22] (setting [25]) came out at 6.225 ± 1.186 mmol/L. This molecule gave a Cholesterol in data set [22] (setting [25]) of 4.188 ± 0.3317 mmol/L. Moreover, the Total bilirubin in data set [22] (setting [25]) was found to be 2.5 ± 0.324 µmol/L. Also, the Body weight result in data set [22] (10 mg/kg, 22 days of therapy) was “did not reduce body weight”. Besides, the “MFC in cells transfected with siDrp1+mDrp1 K38A” value in [23] is given as “this reduction was not seen”. Moreover, the “Mean mitochondrial volume of cardiomyocytes during RV-IR” value in data set [24] is “increased mean mitochondrial volume”. In addition, in data set [24], the “MitoSOX intensity (mitochondrial superoxide) in RV during IR” value is “lower MitoSOX intensity”. Moreover, in the data set on A549 cells (A549 cells), the “Concentration giving the same degree of inhibition of mitochondrial fission (potency)” value is 0.5 µM. For the same molecule, the “Percentage area of elongated (filamentous) mitochondria, machine learning” value in the data set with A549 cells (FIG. 3B) is on record as “increased percentage area of elongated mitochondria”.

Take `N#CC(C#N)=NNc1ccc(OC(F)(F)F)cc1` [FCCP, carbonyl cyanide-4-(trifluoromethoxy)phenylhydrazone, reference compound]: the “Mitochondrial fission in Drp1 knocked-down A549 cells” value in data set [5] is “caused mitochondrial fission”.

`COc1cc(-n2c(=S)[nH]c3ccccc3c2=O)c(Cl)cc1Cl` [mdivi-1, mitochondrial division inhibitor 1, reference compound]: the “Mitochondrial complex I activity in A549 cells” value in the data set on mitochondrial complex I is recorded as “no significant change”. Also, the Cell proliferation with A549 [6] is 32.43 ± 1.481; in the data set with SK-MES-1 [7], 24.97 ± 3.38; in the data set on SK-LU-1 [8] it was 29.5 ± 1.652; in the data set on SW 900 [9] it was 50.1 ± 0.7211; in the data set with MCF7 [10], 8.217 ± 1.256; with PAH PASMC cell lines (PAH PASMC cell line P1) it was 7.38 ± 0.1762. Also, the Cell proliferation in the data set with PAH PASMC cell lines (PAH PASMC cell line P3) is given as 0.3567 ± 0.04372; in the data set on PAH PASMC cell lines (PAH PASMC cell line P7) it was 7.78 ± 0.1882; in [11], 0.8464 ± 0.008105; in data set [12], 65.43 ± 0.06667; in the data set with U87 (Glioblastoma cells), 0.9552 ± 0.01912. Also, in the data set with A549 [6], the “Percentage of EdU incorporated cells” value was “significantly reduced”. Besides, the Colony number amounted to 0.5 ± 0.3416 in the data set with A549 [13], 5.5 ± 0.5627 with SK-MES-1 [14], 2.5 ± 0.4282 with SK-LU-1 [15] and 7.167 ± 0.7491 with MCF7 [16]. The Apoptosis in the data set on A549 [17] was determined as 15.3 ± 0.5213. Also, the “MFC in cells transfected with siDrp1+mDrp1 K38A” value in [23] was “this reduction was not seen”. Also, in the data set with A549 cells (A549 cells), the “Concentration giving the same degree of inhibition of mitochondrial fission (potency)” value came out at 25 µM. For the same molecule, the “Concentration (dose) at which mitochondrial fission was inhibited” value in the data set on A549 cells (A549 cells) is 20 µM.
